# Source: patent USRE47141E1, “Methods of treating fibrosis, cancer and vascular injuries” (EWHA University—Industry Collaboration Foundation, priority 2010, dated 2018)
# Columns and labels:
# [1] = molecular target: CHK1 (Homo sapiens (Human), UniProt O14757); experiment: Kinase selectivity profiling; type: biochemical
# Protocol: (§1) Kinase assays were performed in 96-well FlashPlates™ from Perkin Elmer in a […]. […] The reaction cocktail contained 70 mM HEPES-NaOH, pH 7.5, 3 mM MnCl2, 3 μM Na3VO4, 1.2 mM DTT, 1 μM [γ-^33P]-ATP (approximately 6×10^5 cpm per well), protein kinase (variable amounts), and substrate (variable amounts). The reaction cocktails were incubated at 30° C. for 60 min. The reaction was stopped with 50 μL of 2% (v/v) H3PO4, and plates were aspirated and washed two times with 200 μL 0.9% (w/v) NaCl. ALL assays were performed with a BeckmanCoulter Biomek 2000/SL robotic system. Incorporation of ^33Pi (counting of “cpm”) was determined with a microplate scintillation counter.
# [2] = molecular target: DAPK1 (Homo sapiens (Human), UniProt P53355); experiment: Kinase selectivity profiling; type: biochemical
# Protocol: as §1
# [3] = molecular target: EGF-R wt (Homo sapiens (Human), UniProt P00533); experiment: Kinase selectivity profiling; type: biochemical
# Protocol: as §1
# [4] = molecular target: MET wt (Homo sapiens (Human), UniProt P08581); experiment: Kinase selectivity profiling; type: biochemical
# Protocol: as §1
# [5] = molecular target: PDGFRα wt (Homo sapiens (Human), UniProt P16234); experiment: Kinase selectivity profiling; type: biochemical
# Protocol: as §1
# [6] = molecular target: PKCα (Homo sapiens (Human), UniProt P17252); experiment: Kinase selectivity profiling; type: biochemical
# Protocol: as §1
# [7] = molecular target: RPS6KA1 (Homo sapiens (Human), UniProt Q15418); experiment: Kinase selectivity profiling; type: biochemical
# Protocol: as §1
# [8] = molecular target: VEGF-R1 (Homo sapiens (Human), UniProt P17948); experiment: Kinase selectivity profiling; type: biochemical
# Protocol: as §1
# [9] = system: 4T1 cells; experiment: Cell growth study (SRB assay), 4T1; type: cell-based; conditions: 0.2% serum medium, four days
# Protocol: Either 4T1 cells or MCF10A cells were seeded in 96-well plate at 5×10^3 cells per well. […] After incubation for four days, cell viability was determined by SRB assay.
# [10] = system: BALB/c 4T1 xenografted mice; experiment: Anti-metastatic effect on BALB/c 4T1 xenografted mice model; type: in vivo
# Protocol: Female BALB/c mice were purchased from Orient Bio Inc. (Seoul, Korea). Animals were maintained in a temperature-controlled room (22° C.) and supplied with food and water ad libitum. 4T1 cells (1.2×10^4 cells) were suspended in PBS and implanted into the left #4 mammary fat pad of five to six-week-old female BALB/c mice (day 0). In Experiment 1, treatment was started after tumor implantation (day 0). […] In Experiment 2, treatment was started on day 4. […] In Experiment 3, treatment was started on day 4. […] In Experiment 4, 4T1 cells (1×10^4 cells) were suspended in PBS and implanted into the left #4 mammary fat pad of ten-week-old female BALB/c mice (day 0). Treatment was started on day 10. Example 61 (43.6 mg/kg) dissolved in saline was given to mice intraperitoneally every other day for 2.5 weeks. In all Experiments, mice were sacrificed at 24 to 72 h after the last dosing, and 15% India ink solution (Hardy Diagnostics) in PBS was immediately injected into the trachea. […] Number of metastatic nodule was counted on the surface of left lobe of lung, and picture of lung was taken with digital camera. The tumor size was measured using calipers, and the tumor volume was calculated by using the following equation: Tumor volume=(0.5236)×(width)^2×(length)
# Either vehicle buffer (4 mM HCl, 1 mg/mL BSA) or TGF-β1 (50 ng/mouse) in vehicle buffer was given to mice intravenously at 2 h before mice were sacrificed. Tumor tissues from mice were lysed in RIPA buffer [50 mM Tris, pH 7.5, 150 mM NaCl, 0.1% sodium dodecyl sulfate, 0.5% sodium deoxycholate, 1% NP-40, 1 mM NaF, 1 mM Na3VO4, 1 mM PMSF, a protease inhibitor cocktail (1 tablet of Roche Diagnostics GmbH protease inhibitor cocktail/10 mL) (Roche)] for 20 min on ice. Lysates were cleared by centrifugation at 13000 rpm at 4° C. for 20 min. Protein content of supernatants was determined using Micro-BCA (bicinchoninic acid) protein assay kit (Thermo Scientific). Lysates containing 20-50 μg total protein were separated by electrophoresis on polyacrylamide gel and then electrophoretically transferred to polyvinylidene difluoride transfer membranes (Millipore, Billerica, Mass., USA). Membranes were blocked with 5% BSA (Sigma-Aldrich) in PBS containing 0.5% Tween-20 (PBST) for 1 h and incubated overnight at 4° C. with one of following antibodies: anti-phospho-Smad2 (Millipore), anti-Smad2/3 (BD Transduction Laboratories, NJ, USA), or anti-β-actin (Sigma-Aldrich) in PBST containing 1% BSA. […] Bound antibodies were detected using Western Blotting Luminol Reagent (SantaCruz Biotechnology). Band intensities were analyzed using a densitometer LAS-3000 imager (FUJIFILM, Tokyo, Japan).
# [11] = system: bile duct-ligated (BDL) rats; experiment: Anti-fibrotic effect on bile duct-ligated liver fibrosis model; type: in vivo; conditions: for Body weight / Organ weight Liver / Organ weight Liver/Body / Organ weight Spleen / Organ weight Spleen/Body: BDL rats, mean ± S.E.
# [12] = system: bleomycin (BLM)-treated mice; experiment: Anti-fibrotic effect on bleomycin-induced lung fibrosis model; type: in vivo
# [13] = read-out: % inhibition at 1 μM, 1 μM
# [14] = read-out: % inhibition at 10 μM, 10 μM
# [15] = 5 mg/kg orally three times per week for four weeks
# [16] = 10 mg/kg orally three times per week for four weeks
# [17] = 20 mg/kg orally three times per week for four weeks
# [18] = orally three times per week for four weeks, Example 2 5, 10, 20 mg/kg, Example 3 21.8, 43.6 mg/kg
# [19] = orally three times per week for four weeks, Western blot
# [20] = 5, 10, or 20 mg/kg orally five times per week for two weeks starting from day 7, Western blot
# DAPK1, sequence (P53355 whole entry, species assumed): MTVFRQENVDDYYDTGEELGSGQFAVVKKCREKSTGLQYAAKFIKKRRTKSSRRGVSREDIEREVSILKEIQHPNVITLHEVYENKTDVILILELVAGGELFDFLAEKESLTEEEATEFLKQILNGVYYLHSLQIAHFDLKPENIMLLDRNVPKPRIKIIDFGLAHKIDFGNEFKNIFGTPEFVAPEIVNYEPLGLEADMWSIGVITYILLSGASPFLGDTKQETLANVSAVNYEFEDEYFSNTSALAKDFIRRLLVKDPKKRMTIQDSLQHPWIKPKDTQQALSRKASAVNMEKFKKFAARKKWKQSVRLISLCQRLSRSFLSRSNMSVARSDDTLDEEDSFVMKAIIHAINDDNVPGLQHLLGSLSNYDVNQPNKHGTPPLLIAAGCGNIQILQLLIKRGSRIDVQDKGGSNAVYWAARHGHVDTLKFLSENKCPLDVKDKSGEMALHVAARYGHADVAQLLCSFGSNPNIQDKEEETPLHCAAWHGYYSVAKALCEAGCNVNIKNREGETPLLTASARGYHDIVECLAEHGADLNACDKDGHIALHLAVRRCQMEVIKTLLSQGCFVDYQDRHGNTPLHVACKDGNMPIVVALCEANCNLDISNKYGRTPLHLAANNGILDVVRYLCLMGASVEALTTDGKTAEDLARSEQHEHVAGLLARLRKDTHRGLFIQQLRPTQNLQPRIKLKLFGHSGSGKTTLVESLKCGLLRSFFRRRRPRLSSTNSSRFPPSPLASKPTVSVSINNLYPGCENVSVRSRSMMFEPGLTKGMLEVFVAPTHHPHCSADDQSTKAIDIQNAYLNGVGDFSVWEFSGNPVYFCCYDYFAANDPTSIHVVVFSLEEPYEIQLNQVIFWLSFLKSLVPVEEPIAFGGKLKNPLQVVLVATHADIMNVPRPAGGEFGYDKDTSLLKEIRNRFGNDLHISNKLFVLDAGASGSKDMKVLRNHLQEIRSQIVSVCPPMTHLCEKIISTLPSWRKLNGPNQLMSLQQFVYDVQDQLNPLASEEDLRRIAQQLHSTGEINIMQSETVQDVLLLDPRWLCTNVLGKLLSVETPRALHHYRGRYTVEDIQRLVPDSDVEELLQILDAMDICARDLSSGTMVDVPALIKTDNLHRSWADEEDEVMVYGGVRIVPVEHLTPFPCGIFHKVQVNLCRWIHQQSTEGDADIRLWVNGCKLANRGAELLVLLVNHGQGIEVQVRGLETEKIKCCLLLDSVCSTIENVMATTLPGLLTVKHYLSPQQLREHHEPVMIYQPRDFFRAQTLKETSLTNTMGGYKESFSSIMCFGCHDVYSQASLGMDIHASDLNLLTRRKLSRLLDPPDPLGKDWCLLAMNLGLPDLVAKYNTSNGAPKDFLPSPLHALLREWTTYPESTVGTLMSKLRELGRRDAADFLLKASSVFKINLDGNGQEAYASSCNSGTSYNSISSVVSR
# EGF-R wt, sequence (P00533 25-1210): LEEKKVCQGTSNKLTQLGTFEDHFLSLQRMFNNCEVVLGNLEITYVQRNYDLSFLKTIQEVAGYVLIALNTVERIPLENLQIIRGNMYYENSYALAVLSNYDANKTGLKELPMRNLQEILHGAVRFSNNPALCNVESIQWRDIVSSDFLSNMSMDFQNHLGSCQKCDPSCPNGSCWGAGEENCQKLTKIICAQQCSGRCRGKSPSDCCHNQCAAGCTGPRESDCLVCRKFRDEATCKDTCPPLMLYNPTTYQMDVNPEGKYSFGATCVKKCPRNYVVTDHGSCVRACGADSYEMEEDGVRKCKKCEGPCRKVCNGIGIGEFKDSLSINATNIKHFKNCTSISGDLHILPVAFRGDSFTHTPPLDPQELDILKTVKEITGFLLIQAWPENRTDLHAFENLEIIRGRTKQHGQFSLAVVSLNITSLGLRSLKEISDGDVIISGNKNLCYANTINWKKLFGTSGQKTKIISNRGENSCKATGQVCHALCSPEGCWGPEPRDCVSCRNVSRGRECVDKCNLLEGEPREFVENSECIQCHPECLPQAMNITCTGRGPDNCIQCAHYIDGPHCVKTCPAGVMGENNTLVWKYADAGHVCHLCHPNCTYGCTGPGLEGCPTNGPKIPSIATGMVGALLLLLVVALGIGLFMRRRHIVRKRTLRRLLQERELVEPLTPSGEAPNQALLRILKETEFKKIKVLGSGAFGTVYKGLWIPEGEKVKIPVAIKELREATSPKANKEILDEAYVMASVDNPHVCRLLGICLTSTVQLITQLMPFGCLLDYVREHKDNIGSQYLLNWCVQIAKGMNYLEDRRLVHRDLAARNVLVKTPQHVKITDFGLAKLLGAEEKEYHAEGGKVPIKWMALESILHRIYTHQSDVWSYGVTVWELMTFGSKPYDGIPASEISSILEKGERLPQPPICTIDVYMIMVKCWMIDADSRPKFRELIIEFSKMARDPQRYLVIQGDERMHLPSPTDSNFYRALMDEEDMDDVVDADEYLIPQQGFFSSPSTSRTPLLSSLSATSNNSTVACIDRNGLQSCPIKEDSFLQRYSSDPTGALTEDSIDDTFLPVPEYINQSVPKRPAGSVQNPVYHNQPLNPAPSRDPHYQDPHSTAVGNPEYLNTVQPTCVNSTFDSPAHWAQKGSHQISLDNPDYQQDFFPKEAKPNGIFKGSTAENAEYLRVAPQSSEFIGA
# MET wt, sequence (P08581 25-1390): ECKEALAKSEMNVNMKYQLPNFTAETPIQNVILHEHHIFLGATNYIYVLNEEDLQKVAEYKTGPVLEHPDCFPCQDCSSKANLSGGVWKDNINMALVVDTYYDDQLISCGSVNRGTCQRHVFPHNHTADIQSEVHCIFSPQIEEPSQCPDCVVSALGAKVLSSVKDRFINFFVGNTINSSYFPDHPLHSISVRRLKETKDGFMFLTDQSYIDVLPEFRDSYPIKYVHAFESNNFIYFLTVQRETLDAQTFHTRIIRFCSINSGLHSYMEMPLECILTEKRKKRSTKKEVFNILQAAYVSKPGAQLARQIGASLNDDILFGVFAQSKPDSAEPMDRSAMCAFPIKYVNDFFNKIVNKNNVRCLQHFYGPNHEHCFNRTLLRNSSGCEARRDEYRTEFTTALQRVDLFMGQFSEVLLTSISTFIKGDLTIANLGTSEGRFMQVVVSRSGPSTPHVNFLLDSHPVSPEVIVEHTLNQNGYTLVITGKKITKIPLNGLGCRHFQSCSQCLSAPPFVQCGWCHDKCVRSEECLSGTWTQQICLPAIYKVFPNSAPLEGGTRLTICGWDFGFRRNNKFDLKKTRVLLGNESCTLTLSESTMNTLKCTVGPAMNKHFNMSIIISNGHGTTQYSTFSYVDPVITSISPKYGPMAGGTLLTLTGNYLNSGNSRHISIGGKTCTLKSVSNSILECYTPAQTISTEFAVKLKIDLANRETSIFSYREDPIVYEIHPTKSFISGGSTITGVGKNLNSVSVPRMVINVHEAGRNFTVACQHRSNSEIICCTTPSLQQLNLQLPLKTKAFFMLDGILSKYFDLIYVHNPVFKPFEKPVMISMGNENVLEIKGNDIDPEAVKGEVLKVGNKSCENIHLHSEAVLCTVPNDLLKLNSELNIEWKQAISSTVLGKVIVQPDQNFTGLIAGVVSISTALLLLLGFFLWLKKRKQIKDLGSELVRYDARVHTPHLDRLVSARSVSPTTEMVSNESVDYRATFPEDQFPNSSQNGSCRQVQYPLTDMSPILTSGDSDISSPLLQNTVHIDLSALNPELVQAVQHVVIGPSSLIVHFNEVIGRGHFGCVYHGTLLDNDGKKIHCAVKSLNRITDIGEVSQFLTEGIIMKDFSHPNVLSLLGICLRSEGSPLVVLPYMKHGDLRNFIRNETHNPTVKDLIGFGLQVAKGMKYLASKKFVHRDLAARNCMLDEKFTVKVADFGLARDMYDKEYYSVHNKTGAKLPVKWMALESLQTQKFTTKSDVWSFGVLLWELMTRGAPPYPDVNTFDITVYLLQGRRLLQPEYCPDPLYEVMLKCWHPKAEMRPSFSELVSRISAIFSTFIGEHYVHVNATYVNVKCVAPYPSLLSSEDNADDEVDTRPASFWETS
# PDGFRα wt, sequence (P16234 24-1089): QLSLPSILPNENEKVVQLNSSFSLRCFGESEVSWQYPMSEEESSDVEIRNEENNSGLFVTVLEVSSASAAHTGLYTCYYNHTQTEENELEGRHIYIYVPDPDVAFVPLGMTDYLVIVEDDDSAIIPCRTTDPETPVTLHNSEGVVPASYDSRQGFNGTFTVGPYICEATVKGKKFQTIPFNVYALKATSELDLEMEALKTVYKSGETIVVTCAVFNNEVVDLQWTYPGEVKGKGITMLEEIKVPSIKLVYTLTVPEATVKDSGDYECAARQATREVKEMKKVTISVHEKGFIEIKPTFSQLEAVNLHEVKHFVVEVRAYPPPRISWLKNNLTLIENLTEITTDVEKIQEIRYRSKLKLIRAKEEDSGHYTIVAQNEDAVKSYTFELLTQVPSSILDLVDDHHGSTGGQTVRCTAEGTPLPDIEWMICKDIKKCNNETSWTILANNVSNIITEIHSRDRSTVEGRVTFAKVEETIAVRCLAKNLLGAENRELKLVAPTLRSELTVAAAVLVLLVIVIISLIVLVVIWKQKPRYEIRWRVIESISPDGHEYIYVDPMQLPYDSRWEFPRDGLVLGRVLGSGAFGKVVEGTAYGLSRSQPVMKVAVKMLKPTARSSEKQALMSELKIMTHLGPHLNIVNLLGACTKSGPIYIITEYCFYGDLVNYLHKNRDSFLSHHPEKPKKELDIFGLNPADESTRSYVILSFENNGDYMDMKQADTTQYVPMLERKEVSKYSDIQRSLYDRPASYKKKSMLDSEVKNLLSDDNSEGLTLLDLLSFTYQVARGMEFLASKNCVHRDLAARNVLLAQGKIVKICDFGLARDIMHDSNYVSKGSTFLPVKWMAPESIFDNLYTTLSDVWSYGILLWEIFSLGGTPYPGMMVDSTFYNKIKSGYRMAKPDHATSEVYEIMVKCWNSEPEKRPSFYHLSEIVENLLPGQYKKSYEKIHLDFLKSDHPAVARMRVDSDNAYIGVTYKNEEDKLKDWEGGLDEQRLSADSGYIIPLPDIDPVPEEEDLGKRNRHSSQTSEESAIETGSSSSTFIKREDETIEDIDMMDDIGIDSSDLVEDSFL
smiles,measurement,setting,value
"Cc1cccc(-c2[nH]c(CNc3ccccc3F)nc2-c2ccc3ncnn3c2)n1 [Example 2, N-((4-([1,2,4]triazolo[1,5-a]pyridin-6-yl)-5-(6-methylpyridin-2-yl)-1H-imidazol-2-yl)methyl)-2-fluoroaniline]",inhibition at 1 µM,[1]; [13],-2%
same,inhibition at 10 µM,[1]; [14],5%
same,inhibition at 1 µM,[2]; [13],5%
same,inhibition at 10 µM,[2]; [14],11%
same,inhibition at 1 µM,[3]; [13],-8%
same,inhibition at 10 µM,[3]; [14],43%
same,inhibition at 1 µM,[4]; [13],-5%
same,inhibition at 10 µM,[4]; [14],12%
same,inhibition at 1 µM,[5]; [13],53%
same,inhibition at 10 µM,[5]; [14],91%
same,inhibition at 1 µM,[6]; [13],-9%
same,inhibition at 10 µM,[6]; [14],4%
same,inhibition at 1 µM,[7]; [13],6%
same,inhibition at 10 µM,[7]; [14],14%
same,IC50,[8],391 nM
same,4T1 cell growth,[9],no effect
same,number of metastastic nodules on the lung,"[10]; Example 3 13.6 or 27.3 mg/kg orally BID, four weeks, Example 2 5, 10, 20, or 40 mg/kg orally, Example 61 43.6 mg/kg intraperitoneally every other day, 2.5 weeks",significantly reduced
same,TGF-β1-induced Smad2 phosphorylation in tumor tissues,"[10]; Experiment 3, 5, 10, 20, or 40 mg/kg orally every other day for 24 days, Western blot",suppressed
same,Body weight,[11]; [15],324 ± 7.3 g
same,Organ weight Liver,[11]; [15],17.5 ± 1.82 g
same,Organ weight Liver/Body,[11]; [15],5.46 ± 0.62%
same,Organ weight Spleen,[11]; [15],2.00 ± 0.28 g
same,Organ weight Spleen/Body,[11]; [15],0.63 ± 0.09 %
same,Body weight,[11]; [16],312 ± 10.4 g
same,Organ weight Liver,[11]; [16],15.8 ± 1.88 g
same,Organ weight Liver/Body,[11]; [16],5.08 ± 0.60%
same,Organ weight Spleen,[11]; [16],1.57 ± 0.12 g
same,Organ weight Spleen/Body,[11]; [16],0.51 ± 0.05 %
same,Body weight,[11]; [17],312 ± 8.4 g
same,Organ weight Liver,[11]; [17],15.2 ± 1.80 g
same,Organ weight Liver/Body,[11]; [17],4.88 ± 0.63%
same,Organ weight Spleen,[11]; [17],1.50 ± 0.16 g
same,Organ weight Spleen/Body,[11]; [17],0.48 ± 0.05 %
same,BDL-induced histological change,"[11]; liver, H&E staining",greatly abolished
same,body weight loss in BDL rats,[11]; [18],recovered
same,organ (liver and spleen) weight in BDL rats,[11]; [18],decreased
same,serum ALT in BDL rats,[11]; [18],improved
same,serum AST in BDL rats,[11]; [18],improved
same,fibronectin in BDL rat liver,[11]; [19],suppressed
same,α-SMA in BDL rat liver,[11]; [19],suppressed
same,fibronectin in BLM-induced fibrotic lung,[12]; [20],suppressed
same,α-SMA in BLM-induced fibrotic lung,[12]; [20],suppressed
same,BLM-induced histological changes,"[12]; all dose levels tested (5, 10, 20 mg/kg orally), lung, H&E staining",greatly reduced
